# Reference: patent US20220396565A1 (Hoffmann-La Roche Inc., priority 2020, published 2022)
# Counter-ions that a name gives are not always drawn.
# Test system: Acinetobacter baumannii ATCC17961
# Assay: Antimicrobial susceptibility testing: 90% growth inhibitory concentration (IC90) determination, Iso-Sensitest broth
# Assay type: cell-based
# Details: Acinetobacter baumannii, ATCC17961, 90% growth inhibitory concentration, Acinetobacter baumannii ATCC17961, Iso-Sensitest broth; read-out: ATCC 17961 IC90
# Procedure, shortened: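 Twofold serial dilutions (e.g. 10 to 0.02 μM final) were tested in Iso-Sensitest broth against ~5×10^(5) CFU/ml at 35±2 °C. OD600 was read every 20 min over 16 h. IC90 was derived from growth inhibition during the logarithmic phase.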
row,IC90,SMILES
1,0.11 µM,"COc1ccc(-c2cnc(C(=O)Nc3ccc(C(=O)N4CCN(C(=O)CN5CC(O)C5)CC4)c(Cl)c3)n2C)c(F)c1F [Example 295, N-[3-chloro-4-[4-[2-(3-hydroxyazetidin-1-yl)acetyl]piperazine-1-carbonyl]phenyl]-5-(2,3-difluoro-4-methoxy-phenyl)-1-methyl-imidazole-2-carboxamide formate]"
2,0.09 µM,"COc1ccc(-c2cnc(C(=O)Nc3ccc(C(=O)N4CCN(C(=O)CCOCCOCCN)CC4)c(Cl)c3)n2C)c(F)c1F [Example 131, N-[4-[4-[3-[2-(2-aminoethoxy)ethoxy]propanoyl]piperazine-1-carbonyl]-3-chloro-phenyl]-5-(2,3-difluoro-4-methoxy-phenyl)-1-methyl-imidazole-2-carboxamide formate]"
3,0.05 µM,"Cn1c(-c2ccc(OCC#N)c(F)c2Cl)cnc1C(=O)Nc1ccc(C(=O)N2CCN(C(=O)[C@H]3CCNC3)CC2)c(Cl)c1 [Example 253, 5-[2-chloro-4-(cyanomethoxy)-3-fluoro-phenyl]-N-[3-chloro-4-[4-[(3S)-pyrrolidine-3-carbonyl]piperazine-1-carbonyl]phenyl]-1-methyl-imidazole-2-carboxamide formate]"
4,0.04 µM,"Cn1c(-c2ccc(OCF)c(F)c2F)cnc1C(=O)Nc1ccc(C(=O)N2CCN(C(=O)C3CNCC3O)CC2)c(Cl)c1 (stereo not drawn) [Example 148, N-[3-chloro-4-[4-(4-hydroxypyrrolidine-3-carbonyl)piperazine-1-carbonyl]phenyl]-5-[2,3-difluoro-4-(fluoromethoxy)phenyl]-1-methyl-imidazole-2-carboxamide formate]"
5,0.04 µM,"Cn1c(-c2ccc(OCF)c(F)c2F)cnc1C(=O)Nc1ccc(C(=O)N2CCN(C(=O)C[C@@H]3CCNC3)CC2)c(Cl)c1 [Example 158, N-[3-chloro-4-[4-[2-[(3S)-pyrrolidin-3-yl]acetyl]piperazine-1-carbonyl]phenyl]-5-[2,3-difluoro-4-(fluoromethoxy)phenyl]-1-methyl-imidazole-2-carboxamide formate]"
6,0.06 µM,"COc1ccc(-c2cnc(C(=O)Nc3ccc(C(=O)N4CCC(C(=O)N[C@@H]5CCNC5)CC4)c(Cl)c3)n2C)c(F)c1F [Example 64, 1-[2-chloro-4-[[5-(2,3-difluoro-4-methoxy-phenyl)-1-methyl-imidazole-2-carbonyl]amino]benzoyl]-N-[(3R)-pyrrolidin-3-yl]piperidine-4-carboxamide formate]"
7,0.04 µM,"COc1ccc(-c2cnc(C(=O)Nc3ccc(C(=O)N4CCN(C(=O)CC5CCNC5)CC4)c(Cl)c3)n2C)c(F)c1F (stereo not drawn) [Example 151, N-[3-chloro-4-[4-(2-pyrrolidin-3-ylacetyl)piperazine-1-carbonyl]phenyl]-5-(2,3-difluoro-4-methoxy-phenyl)-1-methyl-imidazole-2-carboxamide formate]"
8,0.16 µM,"COc1ccc(-c2cnc(C(=O)Nc3ccc(C(=O)N4CCN(C(=O)[C@H]5CCNC[C@@H]5O)CC4)c(Cl)c3)n2C)c(F)c1F [Example 231, N-[3-chloro-4-[4-[(3R,4S)-3-hydroxypiperidine-4-carbonyl]piperazine-1-carbonyl]phenyl]-5-(2,3-difluoro-4-methoxy-phenyl)-1-methyl-imidazole-2-carboxamide formate]"
9,0.05 µM,"Cn1c(-c2ccc(OC(F)F)c(F)c2F)cnc1C(=O)Nc1ccc(C(=O)N2CCC(C(=O)N[C@H]3CCNC3)CC2)c(Cl)c1 [Example 95, (S)-1-(2-chloro-4-(5-(4-(difluoromethoxy)-2,3-difluorophenyl)-1-methyl-1H-imidazole-2-carboxamido)benzoyl)-N-(pyrrolidin-3-yl)piperidine-4-carboxamide formate]"
10,0.09 µM,"COc1ccc(-c2cnc(C(=O)Nc3ccc(C(=O)N4CCN(C(=O)[C@H]5CCNC[C@H]5O)CC4)c(Cl)c3)n2C)c(F)c1F [Example 229, N-[3-chloro-4-[4-[(3S,4S)-3-hydroxypiperidine-4-carbonyl]piperazine-1-carbonyl]phenyl]-5-(2,3-difluoro-4-methoxy-phenyl)-1-methyl-imidazole-2-carboxamide]"
11,0.06 µM,"COc1ccc(-c2cnc(C(=O)Nc3ccc(C(=O)N4CCC(C(=O)NCC5CCNCC5)CC4)c(Cl)c3)n2C)c(F)c1F [Example 35, 1-[2-chloro-4-[[5-(2,3-difluoro-4-methoxy-phenyl)-1-methyl-imidazole-2-carbonyl]amino]benzoyl]-N-(4-piperidylmethyl)piperidine-4-carboxamide formate]"
12,0.06 µM,"Cn1c(-c2ccc(OC(F)F)cc2F)cnc1C(=O)Nc1ccc(C(=O)N2CCN(C(=O)C3CCNCC3)CC2)c(Cl)c1 [Example 180, N-[3-chloro-4-[4-(piperidine-4-carbonyl)piperazine-1-carbonyl]phenyl]-5-[4-(difluoromethoxy)-2-fluoro-phenyl]-1-methyl-imidazole-2-carboxamide formate]"
13,0.15 µM,"Cn1c(-c2ccc(OC(F)F)c(F)c2F)cnc1C(=O)Nc1ccc(C(=O)N2CCC(C(=O)N3CCC(C(N)=O)C3)CC2)c(Cl)c1 (stereo not drawn) [Example 49, N-[4-[4-(3-carbamoylpyrrolidine-1-carbonyl)piperidine-1-carbonyl]-3-chloro-phenyl]-5-[4-(difluoromethoxy)-2,3-difluoro-phenyl]-1-methyl-imidazole-2-carboxamide trifluoroacetate]"
14,0.08 µM,"CCOc1ccc(-c2cnc(C(=O)Nc3ccc(C(=O)N4CCN(C(=O)CC5(O)CCNCC5)CC4)c(Cl)c3)n2C)c(F)c1F [Example 183, N-[3-chloro-4-[4-[2-(4-hydroxy-4-piperidyl)acetyl]piperazine-1-carbonyl]phenyl]-5-(4-ethoxy-2,3-difluoro-phenyl)-1-methyl-imidazole-2-carboxamide formate]"
15,0.05 µM,"COc1ccc(-c2cnc(C(=O)Nc3ccc(C(=O)N4CCC(NC(=O)CCN(C)C)CC4)c(Cl)c3)n2C)c(F)c1F [Example 101, N-[3-chloro-4-[4-[3-(dimethylamino)propanoylamino]piperidine-1-carbonyl]phenyl]-5-(2,3-difluoro-4-methoxy-phenyl)-1-methyl-imidazole-2-carboxamide formate]"
16,0.23 µM,"COc1ccc(-c2cnc(C(=O)Nc3ccc(C(=O)N4CCN(C(=O)C5CCNCC5)CC4)c(Cl)c3)n2C)c(F)c1OC [Example 257, N-[3-chloro-4-[4-(piperidine-4-carbonyl)piperazine-1-carbonyl]phenyl]-5-(2-fluoro-3,4-dimethoxy-phenyl)-1-methyl-imidazole-2-carboxamide formate]"
17,0.13 µM,"CN1CCC(NNC(=O)C2CCN(C(=O)c3ccc(NC(=O)c4ncc(-c5ccc(OCF)c(F)c5F)n4C)cc3Cl)CC2)CC1 [Example 52, N-[3-chloro-4-[4-[[(1-methyl-4-piperidyl)amino]carbamoyl]piperidine-1-carbonyl]phenyl]-5-[2,3-difluoro-4-(fluoromethoxy)phenyl]-1-methyl-imidazole-2-carboxamide trifluoroacetate]"
18,0.09 µM,"COc1ccc(-c2cnc(C(=O)Nc3ccc(C(=O)N4CCC(C(=O)NCC5CCN5)CC4)c(Cl)c3)n2C)c(F)c1F (stereo not drawn) [Example 63, N-(azetidin-2-ylmethyl)-1-[2-chloro-4-[[5-(2,3-difluoro-4-methoxy-phenyl)-1-methyl-imidazole-2-carbonyl]amino]benzoyl] piperidine-4-carboxamide formate]"
19,0.11 µM,"COc1ccc(-c2cnc(C(=O)Nc3ccc(C(=O)N4CCN(C(=O)C5CC(O)C5)CC4)c(Cl)c3)n2C)c(F)c1F (stereo not drawn) [Example 219, N-(3-chloro-4-(4-(3-hydroxycyclobutane-1-carbonyl)piperazine-1-carbonyl)phenyl)-5-(2,3-difluoro-4-methoxyphenyl)-1-methyl-1H-imidazole-2-carboxamide]"
20,0.03 µM,"COc1ccc(-c2cnc(C(=O)Nc3ccc(C(=O)N4CCN(C(=O)CN)CC4)c(Cl)c3)n2C)c(F)c1F [Example 149, N-[4-[4-(2-aminoacetyl)piperazine-1-carbonyl]-3-chloro-phenyl]-5-(2,3-difluoro-4 methoxy-phenyl)-1-methyl-imidazole-2-carboxamide formate]"
21,3.3 µM,"COc1ccc(-c2cnc(C(=O)Nc3ccc(C(=O)N4CCC(C(=O)NCCC(=O)O)CC4)c(Cl)c3)n2C)c(F)c1F [Example 67, 3-[[1-[2-chloro-4-[[5-(2,3-difluoro-4-methoxy-phenyl)-1-methyl-imidazole-2-carbonyl]amino]benzoyl]piperidine-4-carbonyl]amino]propanoic acid]"
22,0.16 µM,"Cc1cc(NC(=O)c2ncc(-c3ccc(OCC#N)c(F)c3F)n2C)ccc1C(=O)N1CCN(C(=O)[C@@H]2C[C@](C)(O)CN2)CC1 [Example 225, 5-[4-(cyanomethoxy)-2,3-difluoro-phenyl]-N-[4-[4-[(2S,4S)-4-hydroxy-4-methyl-pyrrolidine-2-carbonyl]piperazine-1-carbonyl]-3-methyl-phenyl]-1-methyl-imidazole-2-carboxamide formate]"

# Same assay, conditions: Acinetobacter baumannii, ATCC17961, read-out: ATCC 17961 IC90
row,SMILES,IC90
1,"COc1ccc(-c2cnc(C(=O)Nc3ccc(C(=O)N4CCC(C(=O)N5C[C@H](N)[C@@H](F)C5)CC4)c(Cl)c3)n2C)c(F)c1F [Example 37, N-[4-[4-[(3S,4S)-3-amino-4-fluoro-pyrrolidine-1-carbonyl]piperidine-1-carbonyl]-3-chloro-phenyl]-5-(2,3-difluoro-4-methoxy-phenyl)-1-methyl-imidazole-2-carboxamide trifluoroacetate]",0.17 µM
2,"COc1ccc(-c2cnc(C(=O)Nc3ccc(C(=O)N4CCC(NS(=O)(=O)C5CCNCC5)CC4)c(Cl)c3)n2C)c(F)c1F [Example 235, N-[3-Chloro-4-[4-(4-piperidylsulfonylamino)piperidine-1-carbonyl]phenyl]-5-(2,3-difluoro-4-methoxy-phenyl)-1-methyl-imidazole-2-carboxamide formate]",0.06 µM
